Measured values from patent US20250346613A1, “BORIC ACID PROTEASOME INHIBITOR AND USE THEREOF” (ARTIVILA BIOPHARMA, priority 2022, published 2025).

What was measured:
[1] = target: T1, β5c subunit of the 20S proteasome (Homo sapiens, UniProt P20618+P28074); assay: Proteasome inhibitory activity, β5c subunit (Raji cells treated with compound, lysed, Suc-LLVY-AMC substrate); assay type: cell-based; details: proteasome from Raji cells incubated with compound 4 h
T1 construct: The proteasome tested in the present disclosure was derived from Raji cells; endogenous in cells; host or cells: Raji cells
Summary of the method: (§1)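 Raji cells were treated for 4 h at 37 °C with compound (from 1 μM, 3-fold, 8 concentrations), then lysed. Lysate activity was read 10 min at 37 °C with Ac-ANW-AMC (β5i) or Suc-LLVY-AMC (β5c) at 345/445 nm. Percent inhibition was relative to DMSO-treated lysate.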

[2] = target: T2, β5i subunit of the 20S proteasome (Homo sapiens, UniProt P20618+P28062); assay: Proteasome inhibitory activity, β5i subunit (Raji cells treated with compound, lysed, Ac-ANW-AMC substrate); assay type: cell-based; details: proteasome from Raji cells incubated with compound 4 h
T2 construct: The proteasome tested in the present disclosure was derived from Raji cells; endogenous in cells; host or cells: Raji cells
Summary of the method: as §1

[3] = Blood concentration measurement of orally-administrated mice; assay type: in vivo, C57BL/6JNifdc mice; details: C57BL/6JNifdc, mouse, plasma, oral, 30 mg/kg; for concentration at 0.5 h: read-out: Average blood compound concentration (μM) 0.5 h; for concentration at 1 h: read-out: Average blood compound concentration (μM) 1.0 h; for concentration at 1.5 h: read-out: Average blood compound concentration (μM) 1.5 h; for concentration at 2 h: read-out: Average blood compound concentration (μM) 2.0 h
Protocol: The C57BL/6JNifdc mice used in this experiment were provided by Zhejiang Vital River Laboratory Animal Technology Co., Ltd. The compounds were dissolved in DMSO/Solutol/Saline (v/v/v=10/10/80) as a stock solution (3 mg/mL). The stock solution was administrated orally to 6 C57BL/6JNifdc mice at a dose of 30 mg/kg. Blood was collected from the orbital venous plexus at 0.5 h, 1 h, 1.5 h, and 2 h after oral administration.
Approximately 200 μL of blood samples were collected into EDTAK2 Blood Collection tubes and then immediately centrifuged at 10,000 rpm for 5 min. 66 μL of plasma supernatant was added with 198 μL of acetonitrile (Energy), the resulting mixture was shaken on a vortex for 5 min, and then immediately centrifuged at 13000 rpm for 8 min. 200 μL of supernatant was taken for blood compound concentration measurement.
The compound was accurately weighed and dissolved in acetonitrile to a concentration of 100 μg/mL. 50 μL of compound was pipetted and added to 4.95 mL of acetonitrile/water (v/v=3/1) solution to obtain 1000 ng/mL mother liquid. 650 μL of the mother liquid was taken and sequentially diluted with a solution of acetonitrile/water (v/v=3/1) in a 2-fold gradient to obtain standard samples with various concentrations of 500 ng/mL, 250 ng/mL, 125 ng/mL, 62.5 ng/mL, and 31.25 ng/mL.
Standard solutions with concentrations of 1000 ng/mL, 500 ng/mL, 250 ng/mL, 125 ng/mL, 62.5 ng/mL, and 31.25 ng/mL were measured by using LC-MS (LC-MS 2020+LC-2030 Plus, Shimadzu) SIM mode to obtain a calibration curve. The treated blood samples were measured by this method and then subjected to quantitative analysis by using the calibration curve to obtain compound concentration data of each treated blood sample.
The data were exported and the average blood compound concentration at each sampling time was calculated.
Blood compound concentration=compound concentration in treated blood sample×4/molecular weight of the compound. The average blood compound concentration is the average of the compound concentrations in the blood at each sampling time.

SMILES | IC50 [1] [nM] | IC50 [2] [nM] | concentration at 0.5 h [3] [µM] | concentration at 1 h [3] [µM] | concentration at 1.5 h [3] [µM] | concentration at 2 h [3] [µM]
COc1cccc(CCNC(=O)C(C)C(=O)N[C@@H](Cc2coc3ccccc23)B(O)O)c1 (stereo partly drawn) [Example 63, ((1R)-2-(benzofuran-3-yl)-1-(3-((3-methoxyphenylethyl)amino)-2-methyl-3-oxopropionamido)ethyl)boric acid] | ≤ 50 | ≤ 50 | 23 | 24 | 15 | 16
Cc1ccc(C[C@H](NC(=O)C(C)C(=O)NCc2ccc(Cl)cc2Cl)B(O)O)cc1 (stereo partly drawn) [Example 59, ((1R)-1-(3-((2,4-dichlorobenzyl)amino)-2-methyl-3-oxopropionamido)-2-(p-tolyl)ethyl)boric acid] | ≤ 50 | ≤ 50 | 23 | 20 | 22 | 16
